The source of these data is patent US20140378513A1, “USE OF FUNGICIDES IN LIQUID SYSTEMS” (priority 2011, published 2014).

Series [1] has as its system Desmid species. Briefly: Algae sensitivity screen, 96 well, growth rate by A750 over 8 days. The series is classed as cell-based. How it is done: (§1) The total volume per well is 200 μl. Each chemical is tested in triplicate.
Series [2] has as its system Scenedesmus dimorphus. The series is described as above. The class given is cell-based. The procedure: as §1
Series [3] concerns Scenedesmus species. The series is described as above. The series is classed as cell-based. How it is done: as §1
The subject of series [4] is microalgae. Briefly: Ranges of microalgae toxicity (serial dilution of fungicide in growing culture). The settings on record: range in which fungicide begins to show growth effects on microalgae. The source says: The present disclosure provides for the introduction of fungicides at an effective concentration. Effective concentrations may be determined according to manufacturer's instructions or may be determined empirically. An effective concentration of a fungicide is not toxic to the microalgae being cultured in the liquid system. Methods to determine toxicity are known in the art and include serial dilutions of a test fungicide in a growing liquid culture of microalgae. One of skill in the art would understand that different microalgae may have different ranges of toxicity that may be determined by growth of a microalga in the presence of a serial dilution of a fungicide.
Algae are screened for sensitivity to chemicals by preparing 180 ml of a log phase culture. The log phase culture is transferred into a 96 well microtiter plate at an absorbance at 750 nm (OD750 or A750) of ˜0.2. Twenty microliters of media is provided into the top row as a negative control, the middle six rows receive a 20 microliter dilution, which is a 10 fold dilution of the chemical at each transfer, of the chemical across an appropriate concentration gradient, and the bottom row receives 20 microliter of the solvent used to solubilize the pesticide alone as a control. The total volume per well is 200 μl. Each chemical is tested in triplicate. The growth of the algae is tracked daily by measuring the A750. After 8 days, the growth rate of the algae is measured by fitting the growth curve to a log model and deriving the maximum growth rate (r). The impact of the chemical is calculated by comparing the r of the algae at various dilutions of the pesticide to the control.

Series [5] concerns Pest in infected Scenedesmus dimorphus culture. Briefly: Fungicide efficacy on pest control in infected microalgae culture. The series is classed as cell-based. The settings on record: for Rating: rating scale of 0 to 3 by percent efficacy; for Scenedesmus dimorphus efficacy: first trial. The source says: Failure to treat an infected culture results in the collapse and loss of the microalgae culture. […] Test fungicides are graded on a rating scale of 0 to 3 where a score of 0 represents an efficacy of between 0 and 25%, a score of 1 represents an efficacy of between 26 and 50%, a score of 2 represents an efficacy of between 51 and 75% and a score of 3 represents an efficacy of between 76 and 100%.

In series [6] the test system is pest FD100. Briefly: 200,000 liter outdoor desmid pond P08, qPCR monitoring and treatment. Further details: species or system chytrid FD100. The settings on record: 1 ppm added on day 30 after decrease in optical density. The procedure: A 200,000 liter outdoor pond located in Las Cruces, N. Mex. is inoculated with a desmid strain at an initial OD (750 nm) of ˜0.15 (pond P08). Growth of the microalgae is monitored daily by measuring the ash free dry weight of the culture. PCR monitoring is performed daily to detect the presence of pests.
Initially, the Ct value for the pest is above the threshold of Ct=30 until day 15 (See, FIG. 14). The measured Ct observed for pest FD100 monitoring stays below Ct=30 and indicates a need for crop protective action. On day 18 post-inoculation, fluazinam is added at a concentration of 0.5 ppm. Daily monitoring is continued and the Ct observed for pest FD100 increases above the Ct=30 threshold and remains above the threshold through day 38.
Successful culture depends on the timely identification of a pest. On day 30, in response to a decrease in optical density of the culture, 1 ppm of pyraclostrobin is added.
(Real-time PCR tracks product formation cycle by cycle.)

The mark [7] stands for this setting: log phase culture, 10 fold dilutions.
[8] abbreviates: Tetradesmus dimorphus, read-out: Scenedesmus dimorphus efficacy.
[9] abbreviates: log phase culture, 10 fold dilutions, 8 days.

SMILES strings stand for the structures. Bounds are passed on as bounds.

`CC(Cc1ccc(C(C)(C)C)cc1)CN1CCCCC1` (stereo not drawn) [fenpropidin, 1-[3-(4-tert-butylphenyl)-2-methylpropyl]piperidine]: the Desmid species toxicity in series [1] (setting [7]) is reported as 0.031-0.125 ppm. For the same compound, the Scenedesmus dimorphus toxicity in series [2] (setting [7]) is reported as 0.00195-0.0078 ppm. In addition, the Scenedesmus species toxicity in series [3] (cell marked (ppb)) is listed as 0.488-1.953 ppb. In addition, the “Ranges of Microalgae toxicity” value in series [4] was 0.00195-1.953 ppm. Also, the “positive efficacy in a first trial confirmed in a second trial” value in series [5] (Table 6) is reported as “not confirmed”. In addition, the activity at 0.8 ppm in series [5] (setting [8]) amounted to 18.5%. For the same compound, the Rating in series [5] was 0 (a score of 0 represents an efficacy of between 0 and 25%).

As for `O=C(Nc1ccccc1)N(Cc1ccc(Cl)cc1)C1CCCC1` [pencycuron], the Desmid species toxicity in series [1] (setting [7]) is 3.125-12.5 ppm. The Scenedesmus dimorphus toxicity in series [2] (setting [7]) is listed as 3.125-12.5 ppm. Also, the Scenedesmus species toxicity in series [3] (setting [9]) is given as 0.781-3.125 ppm. In addition, the “Ranges of Microalgae toxicity” value in series [4] is listed as 0.781-12.5 ppm. The Rating in series [5] is 0 (a score of 0 represents an efficacy of between 0 and 25%).

`CCCOC(=O)NCCCN(C)C` [propamocarb]: the Desmid species toxicity in series [1] (setting [7]) is on record as 3.906-15.625 ppm. Besides, the Scenedesmus dimorphus toxicity in series [2] (setting [7]) is 15.63-62.5 ppm. Moreover, in series [3] (setting [9]), the Scenedesmus species toxicity is recorded as 3.906-15.63 ppm. The “Ranges of Microalgae toxicity” value in series [4] is 3.906-62.5 ppm. The Rating in series [5] was 0 (a score of 0 represents an efficacy of between 0 and 25%).

With `COC(=O)N(OC)c1ccccc1COc1ccn(-c2ccc(Cl)cc2)n1` [pyraclostrobin, methyl N-[2-[[[1-(4-chlorophenyl)-1H-pyrazol-3-yl]oxy]methyl]phenyl]-N-methoxycarbamate], the “culture outcome after second fungicide” value in series [6] is “the culture collapses”. In addition, the “Ranges of Microalgae toxicity” value in series [4] is recorded as over 15 ppm. For the same compound, the activity at 2 ppm in series [5] (setting [8]) stood at 66%. The Rating in series [5] is 2 (a score of 2 represents an efficacy of between 51 and 75%).

Turning to `CON=C(Cc1cccnc1)c1ccc(Cl)cc1Cl` [pyrifenox], in series [1] (setting [7]), the Desmid species toxicity is listed as 0.004-0.0156 ppm. Besides, the Scenedesmus dimorphus toxicity in series [2] (setting [7]) is listed as 0.039-0.156 ppm. Moreover, in series [3] (setting [9]), the Scenedesmus species toxicity is recorded as 0.039-0.156 ppm. For the same compound, in series [4], the “Ranges of Microalgae toxicity” value was 0.004-0.156 ppm. The Scenedesmus dimorphus efficacy result in series [5] (result as symbol) is on record as “(+/−)”. In series [5], the Rating was 0 (a score of 0 represents an efficacy of between 0 and 25%).

As to `CCCN(CC)CC1COC2(CCC(C(C)(C)C)CC2)O1` (stereo not drawn) [spiroxamine], the Desmid species toxicity in series [1] (Desmid species) is on record as 0.250-1.0 ppm. For the same compound, in series [2] (Scenedesmus dimorphus), the Scenedesmus dimorphus toxicity is reported as 0.0625-0.250 ppm. For the same compound, the Scenedesmus species toxicity in series [3] (Scenedesmus species, 8 days) was 0.250-1.0 ppm. For the same compound, in series [4], the “Ranges of Microalgae toxicity” value was 0.0625-1.0 ppm. For the same compound, the Rating in series [5] is 0 (a score of 0 represents an efficacy of between 0 and 25%).

On to `Cc1ccc(N(SC(F)(Cl)Cl)S(=O)(=O)N(C)C)cc1` [tolylfluanid, N-[dichloro(fluoro)methyl]sulfanyl-N-(dimethylsulfamoyl)-4-methylaniline], for which the Desmid species toxicity in series [1] (Desmid species) is listed as 6.25-25.0 ppm. Also, in series [2] (Scenedesmus dimorphus), the Scenedesmus dimorphus toxicity is reported as 1.56-6.25 ppm. The Scenedesmus species toxicity in series [3] (Scenedesmus species, 8 days) is recorded as 6.25-25.0 ppm. Further, in series [4], the “Ranges of Microalgae toxicity” value was 1.56-25.0 ppm. In series [5] (5 ppm, result in words), this compound showed a Scenedesmus dimorphus efficacy of 5 ppm Delayed Crash. Moreover, the Rating in series [5] was 0 (a score of 0 represents an efficacy of between 0 and 25%).

In the case of `CCCOC/C(=N\c1ccc(Cl)cc1C(F)(F)F)n1ccnc1` [triflumizole], the Desmid species toxicity in series [1] (Desmid species) is recorded as 1.563-6.25 ppm. In addition, in series [2] (Scenedesmus dimorphus), the Scenedesmus dimorphus toxicity is listed as 1.563-6.25 ppm. Also, the Scenedesmus species toxicity in series [3] (Scenedesmus species, 8 days) is recorded as 1.563-6.25 ppm. Besides, in series [4], the “Ranges of Microalgae toxicity” value is 1.563-6.25 ppm. Besides, in series [5], the Rating is 0 (a score of 0 represents an efficacy of between 0 and 25%).

As to `CCC(C)(NC(=O)c1cc(Cl)c(C)c(Cl)c1)C(=O)CCl` (stereo not drawn) [zoxamide], in series [1] (Desmid species), the Desmid species toxicity was 0.0156-0.0625 ppm. Moreover, the Scenedesmus dimorphus toxicity in series [2] (Scenedesmus dimorphus) is on record as 0.0625-0.250 ppm. Besides, the Scenedesmus species toxicity in series [3] (Scenedesmus species, 8 days) is listed as 0.0156-0.0625 ppm. Moreover, in series [4], the “Ranges of Microalgae toxicity” value is 0.0156-0.250 ppm. For the same compound, in series [5], the Rating was 0 (a score of 0 represents an efficacy of between 0 and 25%).
